ChEMBL document CHEMBL5356950, “Past, present and future of xanthine oxidase inhibitors: design strategies, structural and pharmacological insights, patents and clinical trials” (RSC Med Chem, 2023)

Legend:
[1] = target: T1, Xanthine dehydrogenase/oxidase (Homo sapiens, UniProt P47989); experiment: Inhibition of XO (unknown origin) relative to control
[2] = target: T2, Xanthine dehydrogenase/oxidase (Bos taurus, UniProt P80457); experiment: Inhibition of Bovine milk XO
[3] = target: T2, Xanthine dehydrogenase/oxidase; experiment: Inhibition of Bovine milk XO using xanthine as substrate assessed as decrease in uric acid level measured after 5 mins by spectrophotometric analysis
[4] = target: T2, Xanthine dehydrogenase/oxidase; experiment: Inhibition of Bovine XO using xanthine as substrate assessed as decrease in uric acid level preincubated for 15 mins followed by substrate addition measured after 2 mins by spectrophotometric analysis
[5] = target: T2, Xanthine dehydrogenase/oxidase; experiment: Inhibition of Bovine milk XO using xanthine as substrate pre incubated for 5 mins followed by substrate addition measured after 30 mins by spectrophotometric analysis
[6] = target: T3, Xanthine dehydrogenase/oxidase (Mus musculus, UniProt Q00519); experiment: Inhibition of mouse serum XO assessed as decrease in uric acid level measured after 6 hrs relative to control
[7] = target: T3, Xanthine dehydrogenase/oxidase; experiment: Inhibition of mouse serum XO assessed as decrease in uric acid level measured after 2 hrs relative to control
[8] = target: T1, Xanthine dehydrogenase/oxidase; experiment: Inhibition of XO (unknown origin) using xanthine as substrate measured after 10 mins
[9] = target: T1, Xanthine dehydrogenase/oxidase; experiment: Inhibition of XO (unknown origin) using xanthine as substrate pre incubated for 10 mins followed by substrate addition measured after 15 mins
[10] = target: T2, Xanthine dehydrogenase/oxidase; experiment: Inhibition of Bovine milk XO using xanthine as substrate measured after 10 mins by spectrophotometric analysis
[11] = target: T2, Xanthine dehydrogenase/oxidase; experiment: Inhibition of Bovine milk XO measured after 30 mins
[12] = Toxicity in rat assessed as hypouricemic activity at 1 mg/kg; assay type: organism-based; conditions: in vivo
[13] = Toxicity in rat assessed as hypouricemic activity at 3 mg/kg measured after 24 hrs; assay type: organism-based; conditions: in vivo
[14] = target: T2, Xanthine dehydrogenase/oxidase; experiment: Inhibition of Bovine milk XO using xanthine as substrate assessed as decrease in uric acid level pre incubated for 15 mins followed by substrate addition measured after 30 mins by spectrophotometric analysis
[15] = target: T4, Solute carrier family 22 member 12 (Homo sapiens, UniProt Q96S37); experiment: Inhibition of human URAT1
T4 sequence (Q96S37 whole entry): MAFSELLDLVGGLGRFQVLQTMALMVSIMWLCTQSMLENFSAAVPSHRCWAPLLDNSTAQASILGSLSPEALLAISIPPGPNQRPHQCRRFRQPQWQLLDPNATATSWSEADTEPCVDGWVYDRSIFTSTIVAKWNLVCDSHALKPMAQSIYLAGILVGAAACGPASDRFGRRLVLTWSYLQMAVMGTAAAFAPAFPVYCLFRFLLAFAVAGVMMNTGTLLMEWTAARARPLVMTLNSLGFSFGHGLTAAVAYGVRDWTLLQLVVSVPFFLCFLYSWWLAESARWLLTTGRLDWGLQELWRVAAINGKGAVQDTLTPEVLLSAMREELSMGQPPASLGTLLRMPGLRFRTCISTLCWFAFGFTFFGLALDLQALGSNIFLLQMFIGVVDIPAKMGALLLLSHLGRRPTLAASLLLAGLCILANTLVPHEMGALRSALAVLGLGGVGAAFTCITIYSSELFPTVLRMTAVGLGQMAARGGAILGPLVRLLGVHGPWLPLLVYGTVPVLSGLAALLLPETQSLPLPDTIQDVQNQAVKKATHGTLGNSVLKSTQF

[16] = target: T2, Xanthine dehydrogenase/oxidase; experiment: Inhibition of Bovine XO using xanthine as substrate assessed as decrease in uric acid level measured after 10 mins by spectrophotometric analysis
[17] = target: T4, Solute carrier family 22 member 12; experiment: Inhibition of URAT1 (unknown origin)
[18] = target: T4, Solute carrier family 22 member 12; experiment: Inhibition of URAT1 (unknown origin) assessed as decrease in uric acid level measured after 15 mins
[19] = Toxicity in Wistar rat assessed as decrease in serum uric acid level at 1 mg/kg, po measured after 6 hrs; assay type: organism-based; set-up: scale not given: the % may be the effect or the level left; conditions: in vivo
[20] = target: T2, Xanthine dehydrogenase/oxidase; experiment: Inhibition of Bovine milk XO using xanthine as substrate at 100 uM measured after 10 mins by microplate reader analysis relative to control; conditions: cattle
[21] = target: T1, Xanthine dehydrogenase/oxidase; experiment: Inhibition of XO (unknown origin) using xanthine as substrate measured after 2 to 3 mins by UV-spectrophotometric analysis
[22] = target: T2, Xanthine dehydrogenase/oxidase; experiment: Inhibition of Bovine milk XO using xanthine as substrate measured after 10 mins by spectrophotometric analysis relative to control; conditions: cattle
[23] = target: T2, Xanthine dehydrogenase/oxidase; experiment: Inhibition of Bovine milk XO using xanthine as substrate assessed as decrease in uric acid level measured after 15 mins by spectrophotometric analysis
[24] = target: T1, Xanthine dehydrogenase/oxidase; experiment: Inhibition of XO (unknown origin) using xanthine as substrate pre incubated for 5 mins followed by substrate addition measured after 1 mins by spectrophotometric analysis
[25] = target: T2, Xanthine dehydrogenase/oxidase; experiment: Inhibition of Bovine XO using xanthine as substrate assessed as decrease in uric acid level by spectrophotometric analysis
[26] = target: T1, Xanthine dehydrogenase/oxidase; experiment: Inhibition of XO (unknown origin) using xanthine as substrate pre incubated for 15 mins followed by substrate addition measured after 30 mins by UV-VIS spectrophotometer analysis
[27] = target: T1, Xanthine dehydrogenase/oxidase; experiment: Inhibition of XO (unknown origin) using xanthine as substrate assessed as decrease in uric acid level measured after 3 mins by spectrophotometric analysis

T1 sequence (P47989 whole entry): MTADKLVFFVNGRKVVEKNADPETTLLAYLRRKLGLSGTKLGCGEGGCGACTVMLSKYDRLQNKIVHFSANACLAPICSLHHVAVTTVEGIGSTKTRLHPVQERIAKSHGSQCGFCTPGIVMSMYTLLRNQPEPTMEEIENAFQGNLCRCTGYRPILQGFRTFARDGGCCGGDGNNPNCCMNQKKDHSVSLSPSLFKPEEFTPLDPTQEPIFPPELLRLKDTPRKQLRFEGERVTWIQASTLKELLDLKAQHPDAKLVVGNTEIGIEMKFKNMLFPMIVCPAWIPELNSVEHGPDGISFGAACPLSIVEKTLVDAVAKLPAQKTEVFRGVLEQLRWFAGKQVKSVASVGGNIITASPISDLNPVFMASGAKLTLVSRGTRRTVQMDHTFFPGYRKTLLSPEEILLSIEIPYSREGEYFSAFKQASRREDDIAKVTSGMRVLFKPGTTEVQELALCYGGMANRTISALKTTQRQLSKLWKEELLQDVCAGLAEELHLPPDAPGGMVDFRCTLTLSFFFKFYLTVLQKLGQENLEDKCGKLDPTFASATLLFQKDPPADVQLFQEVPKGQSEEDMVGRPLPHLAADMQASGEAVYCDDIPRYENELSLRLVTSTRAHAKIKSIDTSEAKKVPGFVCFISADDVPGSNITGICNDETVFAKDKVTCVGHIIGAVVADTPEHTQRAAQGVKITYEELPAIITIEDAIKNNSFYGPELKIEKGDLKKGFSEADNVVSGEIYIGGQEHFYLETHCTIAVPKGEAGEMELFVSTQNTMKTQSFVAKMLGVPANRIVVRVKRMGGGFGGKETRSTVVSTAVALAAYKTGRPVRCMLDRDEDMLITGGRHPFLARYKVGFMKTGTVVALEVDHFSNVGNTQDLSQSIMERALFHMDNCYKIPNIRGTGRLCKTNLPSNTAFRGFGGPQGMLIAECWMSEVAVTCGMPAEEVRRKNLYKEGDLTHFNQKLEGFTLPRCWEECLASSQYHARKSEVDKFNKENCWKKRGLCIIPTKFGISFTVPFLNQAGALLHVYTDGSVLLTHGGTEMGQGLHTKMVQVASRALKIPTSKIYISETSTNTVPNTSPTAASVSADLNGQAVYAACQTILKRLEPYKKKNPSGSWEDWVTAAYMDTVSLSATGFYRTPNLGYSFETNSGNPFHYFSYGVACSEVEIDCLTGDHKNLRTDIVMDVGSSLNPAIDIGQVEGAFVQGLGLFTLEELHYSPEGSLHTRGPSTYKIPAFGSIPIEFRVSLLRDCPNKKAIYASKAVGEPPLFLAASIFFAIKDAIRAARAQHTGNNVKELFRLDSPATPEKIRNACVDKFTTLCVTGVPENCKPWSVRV
T2 sequence (P80457 whole entry): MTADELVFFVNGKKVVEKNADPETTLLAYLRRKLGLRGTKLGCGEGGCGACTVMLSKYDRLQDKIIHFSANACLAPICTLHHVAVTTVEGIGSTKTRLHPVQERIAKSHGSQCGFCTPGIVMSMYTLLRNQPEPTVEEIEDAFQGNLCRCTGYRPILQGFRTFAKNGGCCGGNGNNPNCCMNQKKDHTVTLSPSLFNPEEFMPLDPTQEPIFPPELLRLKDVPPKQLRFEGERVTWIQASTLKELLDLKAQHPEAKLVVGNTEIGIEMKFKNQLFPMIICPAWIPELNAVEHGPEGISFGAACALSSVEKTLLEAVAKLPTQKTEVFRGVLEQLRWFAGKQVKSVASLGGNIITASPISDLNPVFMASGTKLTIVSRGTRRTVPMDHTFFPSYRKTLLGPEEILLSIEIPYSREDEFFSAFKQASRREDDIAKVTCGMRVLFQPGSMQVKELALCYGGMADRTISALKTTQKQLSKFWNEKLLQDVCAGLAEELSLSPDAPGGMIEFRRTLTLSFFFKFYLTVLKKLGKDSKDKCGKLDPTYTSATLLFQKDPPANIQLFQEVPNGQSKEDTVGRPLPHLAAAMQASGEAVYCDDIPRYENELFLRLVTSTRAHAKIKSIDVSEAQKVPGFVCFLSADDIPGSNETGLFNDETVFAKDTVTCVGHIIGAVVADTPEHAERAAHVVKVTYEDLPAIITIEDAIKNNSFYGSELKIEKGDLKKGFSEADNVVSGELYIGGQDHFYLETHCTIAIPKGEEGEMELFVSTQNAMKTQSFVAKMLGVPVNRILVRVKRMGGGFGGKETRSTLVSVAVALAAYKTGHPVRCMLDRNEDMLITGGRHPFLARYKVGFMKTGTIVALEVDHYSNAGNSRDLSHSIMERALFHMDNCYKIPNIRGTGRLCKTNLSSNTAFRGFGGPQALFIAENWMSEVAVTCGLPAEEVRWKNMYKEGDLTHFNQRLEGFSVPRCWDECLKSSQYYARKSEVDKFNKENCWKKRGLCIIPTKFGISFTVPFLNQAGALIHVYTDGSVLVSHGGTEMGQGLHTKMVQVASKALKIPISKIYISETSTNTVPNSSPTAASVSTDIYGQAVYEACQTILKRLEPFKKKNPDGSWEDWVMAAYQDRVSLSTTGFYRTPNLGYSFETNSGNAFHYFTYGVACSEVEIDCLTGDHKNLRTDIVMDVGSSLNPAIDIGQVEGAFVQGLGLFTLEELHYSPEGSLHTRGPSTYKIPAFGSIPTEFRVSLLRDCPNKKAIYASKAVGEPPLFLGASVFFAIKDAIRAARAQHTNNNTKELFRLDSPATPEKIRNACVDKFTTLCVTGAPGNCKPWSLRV
T3 sequence (Q00519 whole entry): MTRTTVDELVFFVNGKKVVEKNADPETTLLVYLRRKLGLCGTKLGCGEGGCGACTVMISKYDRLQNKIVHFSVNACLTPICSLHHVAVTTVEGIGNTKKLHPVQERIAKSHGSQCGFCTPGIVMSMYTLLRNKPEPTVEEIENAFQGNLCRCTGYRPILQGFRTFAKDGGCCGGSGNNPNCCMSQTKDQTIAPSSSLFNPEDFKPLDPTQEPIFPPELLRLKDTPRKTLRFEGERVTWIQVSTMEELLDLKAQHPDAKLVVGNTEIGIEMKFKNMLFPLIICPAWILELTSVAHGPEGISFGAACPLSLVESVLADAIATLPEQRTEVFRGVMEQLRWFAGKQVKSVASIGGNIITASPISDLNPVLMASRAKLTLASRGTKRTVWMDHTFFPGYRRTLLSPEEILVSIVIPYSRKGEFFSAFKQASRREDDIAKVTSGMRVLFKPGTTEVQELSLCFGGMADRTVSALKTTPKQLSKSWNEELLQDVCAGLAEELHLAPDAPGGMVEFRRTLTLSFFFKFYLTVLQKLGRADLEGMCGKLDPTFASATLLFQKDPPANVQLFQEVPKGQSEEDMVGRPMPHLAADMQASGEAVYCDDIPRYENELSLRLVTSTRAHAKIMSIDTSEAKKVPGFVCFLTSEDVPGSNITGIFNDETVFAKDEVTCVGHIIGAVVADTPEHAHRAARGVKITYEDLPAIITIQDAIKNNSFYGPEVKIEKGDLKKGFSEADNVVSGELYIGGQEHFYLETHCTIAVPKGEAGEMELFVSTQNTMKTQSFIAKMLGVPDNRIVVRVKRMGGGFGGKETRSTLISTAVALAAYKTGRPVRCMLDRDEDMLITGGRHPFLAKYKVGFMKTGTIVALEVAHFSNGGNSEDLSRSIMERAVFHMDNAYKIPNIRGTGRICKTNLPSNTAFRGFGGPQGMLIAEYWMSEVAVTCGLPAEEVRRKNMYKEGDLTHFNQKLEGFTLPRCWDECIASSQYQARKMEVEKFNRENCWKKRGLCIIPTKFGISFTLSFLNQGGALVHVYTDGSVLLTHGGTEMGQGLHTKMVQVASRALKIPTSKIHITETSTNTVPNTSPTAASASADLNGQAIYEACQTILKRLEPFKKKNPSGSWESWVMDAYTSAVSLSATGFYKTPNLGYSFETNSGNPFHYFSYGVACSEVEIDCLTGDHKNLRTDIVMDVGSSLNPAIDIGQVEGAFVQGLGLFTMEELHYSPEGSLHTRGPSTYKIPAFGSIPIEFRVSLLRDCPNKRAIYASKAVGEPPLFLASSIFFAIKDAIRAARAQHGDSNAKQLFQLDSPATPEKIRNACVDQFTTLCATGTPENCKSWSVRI

O=C1CC(c2ccccc2)Oc2c3c(c(CO)c(O)c21)OCN(c1ccc(F)cc1)C3 (stereo unspecified)
inhibition (INH) [1]: 84.27%

OCc1ccc(O)c(O)c1
IC50 [2]: 3 µM

O=c1oc2cc(O)cc(O)c2cc1-c1cccc(O)c1
IC50 [3]: 2.13 µM

O=c1[nH]c(-c2ccc(OCC3CCCCC3)c(-n3cnnn3)c2)no1
IC50 [4]: 0.121 µM

Cc1nn(-c2ccc(OCCC(C)C)c(C#N)c2)nc1C(=O)O
IC50 [5]: 0.084 µM

Oc1ncnc2[nH]ncc12 [ALLOPURINOL]
inhibition (INH) [6]: 14%
inhibition (INH) [7]: 33%

COC(=O)[C@H]1C[C@@H](n2cc(-c3ccccc3)nn2)[C@H](O)C[C@H]1C(=O)OC
IC50 [8]: 0.586 µM

CN1C(=O)C(=Cc2ccc(Cl)cc2Cl)C(=O)N(C)C1=O
IC50 [9]: 21000 µM

O=[N+]([O-])c1cc(C2=NC3=CN=CN(O)C3S2)ccc1Oc1ccccc1F (stereo unspecified)
IC50 [10]: 0.0054 µM

Cc1nc(-c2cc(C#N)c3c(c2)CC2(CCCC2)O3)[se]c1C(=O)O
IC50 [11]: 0.00158 µM

Cc1nc(-c2ccc(OC(C)C)c(-n3cnnn3)c2)sc1C(=O)O
Activity [12]: 50%

Cc1nc(-c2cc(C#N)c3c(c2)CCC(C)(C)O3)sc1C(=O)O
IC50 [11]: 0.00265 µM

CCOC(=O)c1sc(-c2cc(I)c3c(c2)CCC(C)(C)O3)nc1C
IC50 [11]: 0.0013 µM

Cc1nc(-c2ccc(OCC(C)(C)C)c(-n3cnnn3)c2)sc1C(=O)O
Activity [12]: 50%
Activity [13]: 40%

O=[N+]([O-])c1ccc(CSc2nnc(-c3cc(-c4ccccc4)nn3Cc3ccccc3)o2)cc1
IC50 [14]: 72.4 µM

COC(=O)C(Sc1nnc(Br)n1-c1ccc(Br)c2ccccc12)C(=O)OC
IC50 [15]: 0.0197 µM

Cc1nc(-c2cc(I)c3c(c2)CCC(C)(C)O3)sc1C(=O)O
IC50 [11]: 0.00187 µM

COc1cc(OC)c(C(=O)/C=C/c2ccccc2F)c(O)c1C(=O)/C=C/c1ccccc1F
IC50 [16]: 0.728 µM

O=C(NC(Cc1ccccc1)C(=O)O)c1ccc2c(c1)C(=O)c1ccccc1C2=O (stereo unspecified)
IC50 [16]: 2.9 µM

O=C(Nc1ccc(-c2nnn[nH]2)cc1)c1c(O)[nH]c(=S)[nH]c1=O
IC50 [17]: 0.39 µM

N#Cc1ccc(NS(=O)(=O)c2ccccc2OC(F)(F)F)cc1Cl
IC50 [18]: 0.006 µM

Cc1cc(-c2nc(-c3ccc(OCC(C)C)c([N+](=O)[O-])c3)n[nH]2)ccn1
Activity [19]: 66.5%

COCOc1cccc(-c2c[nH]cc2C#N)c1
inhibition at 100 µM [20]: > 90%

COc1ccc([C@@H]2C/C(=N\c3ccc([N+](=O)[O-])cc3Cl)C3C(O)=CC(O[C@H]4C[C@@H](OC5O[C@H](C)[C@@H](O)[C@H](O)C5O)[C@H](O)[C@@H](O)[C@@H]4O)=CC3O2)cc1O (stereo partly specified)
IC50 [21]: 0.263 µM

Clc1cc2nc(-c3ccncc3)[nH]c2cc1Cl
inhibition (INH) [1]: 56%

Cc1cc(C)c(C[n+]2cn(CCO)c3ccccc32)c(C)c1
IC50 [8]: 1.25 µM

Cc1ccc2c(-c3ccc(C(=O)O)c(O)c3)cc(C#N)n2n1
IC50 [10]: 0.003 µM
inhibition (INH) [22]: 60%

Nn1c(S)nnc1-c1cc(-c2ccccc2)nn1Cc1ccccc1
IC50 [14]: 65.4 µM

O=C(/C=C/c1cc(O)cc(O)c1)c1ccc(O)cc1O
IC50 [23]: 22.5 µM

N#Cc1c(Cl)cc(NS(=O)(=O)c2ccccc2OC(F)(F)F)cc1Cl
IC50 [18]: 0.004 µM

CCC1(C)Cc2cc(-c3nc(C)c(C(=O)O)s3)cc(C#N)c2O1 (stereo unspecified)
IC50 [11]: 0.00135 µM

Cc1nc(-c2ccc(OCC(C)C)c(-n3cnnn3)c2)sc1C(=O)O
Activity [12]: 50%
Activity [13]: 40%

COc1ccc(-c2cc3cc([N+](=O)[O-])ccc3oc2=O)cc1
IC50 [24]: 8.4 µM

N#Cc1cn(-c2ccc(C(=O)O)c(O)c2)cc1-c1cccs1
inhibition at 100 µM [20]: > 90%

O=C(O)c1ccc2c(c1)C(=O)N(c1ccccc1)C2=O
IC50 [25]: 7.15 µM

Cc1nc(-c2cc(C#N)c3c(c2)CC2(CCCCC2)O3)sc1C(=O)O
IC50 [11]: 0.0014 µM

O=Cc1ccc(C2Nc3ccccc3-c3cc(-c4ccccc4)nn32)c([N+](=O)[O-])c1 (stereo unspecified)
IC50 [26]: 11 µM

CCCCc1cn(-c2ccc(C(=O)O)c(O)c2)cc1C#N
inhibition at 100 µM [20]: > 90%

Cc1nc(-c2cc(C#N)c3c(c2)CC(C)O3)sc1C(=O)O (stereo unspecified)
IC50 [11]: 0.00184 µM

Cc1cc(-c2n[nH]c(-c3ccc(OCC(C)C)c(C#N)c3)n2)ccn1
Activity [19]: 67.5%

Cc1nc(-c2cc(C#N)c3c(c2)CCC(C)(C)O3)[se]c1C(=O)O
IC50 [11]: 0.00236 µM

COc1ccc2c(c1)c(CC(=O)O)c(C)n2C(=O)c1ccc(Cl)cc1 [INDOMETHACIN]
IC50 [27]: 86 µM
